As a reminder, the pIC50 is −log10 of the IC50, conventionally taken in molar units. A lower pIC50 goes with a large IC50.

pIC50: −log10 of the molar value.

Among the data in patent US9481709B2, “Boropeptide inhibitors of enteropeptidase and their uses in treatment of obesity, overweight and/or diseases associated with an abnormal fat metabolism” (OBE THERAPY BIOTECHNOLOGY, priority 2007, dated 2016) are IC50 values, retold here.

One assay addresses Enteropeptidase (Homo sapiens, UniProt P98073). Put plainly: Enteropeptidase. From the text: (§1) Table printed on a drawing sheet, Fig. 5
Head of the field: Enteropeptidase
(§2) The patent's description of the figure: FIG. 5 is a Table showing the IC 50 (in nM) of enteropeptidase, various serine proteases and other enzyme families, in the presence of compounds OBE 1999, OBE 2000, OBE 2001 or OBE 2002.
(§3) First copying reader's note: Each column is one compound; each row gives its IC50 against the named enzyme.
Where the first naming reader finds the target: head: Enteropeptidase

Another assay addresses Plasmin (Homo sapiens, UniProt P00747). The assay is described as follows: Plasmin.
From the text: as §1
Head of the field: Plasmin
as §2, §3
Where the first naming reader finds the target: head: Plasmin

The target in another assay is Kallikrein (Homo sapiens, UniProt P03952). The assay is described as follows: Kallikrein.
Sequence of Kallikrein (P03952 20-638): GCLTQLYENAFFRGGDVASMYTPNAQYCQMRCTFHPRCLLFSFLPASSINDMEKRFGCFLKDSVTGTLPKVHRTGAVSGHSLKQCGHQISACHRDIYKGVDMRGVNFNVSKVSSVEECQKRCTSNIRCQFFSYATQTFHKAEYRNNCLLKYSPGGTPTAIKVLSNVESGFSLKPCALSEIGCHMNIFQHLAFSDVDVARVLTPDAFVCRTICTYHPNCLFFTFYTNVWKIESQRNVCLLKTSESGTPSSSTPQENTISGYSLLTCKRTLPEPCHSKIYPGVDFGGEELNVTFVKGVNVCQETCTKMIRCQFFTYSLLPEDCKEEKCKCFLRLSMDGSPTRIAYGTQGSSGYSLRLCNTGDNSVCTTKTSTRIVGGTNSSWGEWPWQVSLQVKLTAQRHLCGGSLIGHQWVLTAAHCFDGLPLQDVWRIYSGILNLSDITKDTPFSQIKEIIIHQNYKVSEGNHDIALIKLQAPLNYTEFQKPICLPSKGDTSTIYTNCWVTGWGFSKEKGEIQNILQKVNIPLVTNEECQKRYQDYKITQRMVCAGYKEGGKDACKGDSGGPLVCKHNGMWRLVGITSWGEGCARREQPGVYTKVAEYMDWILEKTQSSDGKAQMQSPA
From the text: as §1
Head of the field: Kallikrein
as §2, §3
Where the first naming reader finds the target: head: Kallikrein

Sequence of Plasmin (P00747 97-810): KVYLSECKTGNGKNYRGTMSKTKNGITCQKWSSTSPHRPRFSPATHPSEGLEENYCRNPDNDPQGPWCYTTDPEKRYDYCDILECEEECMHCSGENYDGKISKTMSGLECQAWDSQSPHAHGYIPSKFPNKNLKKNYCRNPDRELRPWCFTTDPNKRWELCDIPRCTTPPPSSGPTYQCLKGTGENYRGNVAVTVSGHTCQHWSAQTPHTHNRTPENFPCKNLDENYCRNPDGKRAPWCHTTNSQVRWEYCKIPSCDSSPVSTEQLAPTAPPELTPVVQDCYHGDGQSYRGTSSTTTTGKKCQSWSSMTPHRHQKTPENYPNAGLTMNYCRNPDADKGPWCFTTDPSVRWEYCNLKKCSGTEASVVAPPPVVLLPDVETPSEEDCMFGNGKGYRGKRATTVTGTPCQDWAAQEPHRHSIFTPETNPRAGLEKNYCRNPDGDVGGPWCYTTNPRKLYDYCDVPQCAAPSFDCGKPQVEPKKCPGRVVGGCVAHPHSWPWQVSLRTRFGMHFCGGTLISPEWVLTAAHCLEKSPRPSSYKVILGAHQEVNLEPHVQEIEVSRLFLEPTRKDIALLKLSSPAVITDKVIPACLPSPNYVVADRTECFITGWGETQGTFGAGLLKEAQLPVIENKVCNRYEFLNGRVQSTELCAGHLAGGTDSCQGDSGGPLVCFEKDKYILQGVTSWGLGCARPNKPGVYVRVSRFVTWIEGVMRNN
Sequence of Enteropeptidase (P98073 2-1019): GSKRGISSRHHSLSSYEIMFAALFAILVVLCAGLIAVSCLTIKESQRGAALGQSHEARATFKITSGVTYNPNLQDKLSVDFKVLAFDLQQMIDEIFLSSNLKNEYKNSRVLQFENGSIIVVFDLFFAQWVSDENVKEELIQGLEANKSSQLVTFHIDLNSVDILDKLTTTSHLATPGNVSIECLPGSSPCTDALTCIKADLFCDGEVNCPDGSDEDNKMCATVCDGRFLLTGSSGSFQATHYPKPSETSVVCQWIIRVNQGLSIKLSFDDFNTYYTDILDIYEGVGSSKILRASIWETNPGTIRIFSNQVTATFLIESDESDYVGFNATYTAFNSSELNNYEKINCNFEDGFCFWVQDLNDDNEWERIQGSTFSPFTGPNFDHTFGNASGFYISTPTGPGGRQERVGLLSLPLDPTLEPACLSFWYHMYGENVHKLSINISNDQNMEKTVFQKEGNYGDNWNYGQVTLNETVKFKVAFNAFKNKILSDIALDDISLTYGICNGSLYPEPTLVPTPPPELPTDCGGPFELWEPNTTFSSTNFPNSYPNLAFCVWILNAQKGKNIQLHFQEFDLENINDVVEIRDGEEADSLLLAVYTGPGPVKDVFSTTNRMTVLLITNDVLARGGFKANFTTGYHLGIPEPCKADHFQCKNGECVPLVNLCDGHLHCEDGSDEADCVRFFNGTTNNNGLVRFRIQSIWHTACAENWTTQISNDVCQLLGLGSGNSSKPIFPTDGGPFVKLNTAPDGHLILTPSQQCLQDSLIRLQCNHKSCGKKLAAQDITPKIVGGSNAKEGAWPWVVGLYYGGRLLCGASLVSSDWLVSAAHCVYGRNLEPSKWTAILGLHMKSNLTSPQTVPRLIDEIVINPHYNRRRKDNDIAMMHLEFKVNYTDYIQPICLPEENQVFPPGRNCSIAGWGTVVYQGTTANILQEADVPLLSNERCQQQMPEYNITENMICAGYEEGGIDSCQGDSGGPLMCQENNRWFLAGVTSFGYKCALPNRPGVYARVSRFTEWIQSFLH

On to `CC(=O)N[C@@H](C)C(=O)N[C@@H](Cc1ccccc1)C(=O)N[C@@H](CCCNC(=N)N)B1OC2C[C@@H]3C[C@@H](C3(C)C)[C@]2(C)O1` (stereo partly drawn) [OBE2001], for which the pIC50 at Enteropeptidase was 8.14; against Plasmin, 7.66; at Kallikrein it was 8.16.
